What all share (format): in vivo, human
The subject of assay [1] is multiple sclerosis patients. Nature of the assay: Total (whole) brain gray matter volume change on brain MRI, SIENAX segmentation (Example 1). The settings on record: over 24 months.
Protocol: The effect of estriol treatment as compared to placebo treatment on total (whole) brain gray matter (GM) atrophy was assessed since gray matter atrophy is a surrogate marker for permanent disability in MS. […] The GM volume change from the month 0 scan to the month 12 scan and then the volume change from the month 0 scan to the month 24 scan was calculated.
Assay [2] concerns relapsing remitting multiple sclerosis patients. Kind of assay: Expanded Disability Status Scale (EDSS) change and disability progression. The settings on record: for Proportion of pts with progression at 24 months % (95% CI): EDSS progression sustained at least 6 months, Kaplan-Meier; for EDSS change at 24 months (median): within group comparison vs baseline, negative values indicate improvement. Here is the method: Standardized neurologic assessments, including an EDSS assessment, were performed at months 0, 3, 6, 12, 18 and 24, and at the time of a suspected relapse (as an additional unscheduled visit). EDSS assessments were performed by physicians who were trained either by in-person training or online (www.Neurostatus.net). MRI scans were obtained at screening and at months 0, 3, 6, 12 and 24. Subjects were seen or contacted every 3 months for compliance assessments and for dispensing medications.
Secondary efficacy end points included the proportion of subjects with a relapse over all 24 months, a change in PASAT cognitive testing, a sustained improvement in PASAT cognitive testing (as defined by an increase of at least 3 points sustained over at least 6 months), a change in EDSS scores from baseline, disability progression (as defined by an increase in EDSS of at least 1.0 point in subjects with a baseline score of 1.0 or higher, or by an increase of at least a 1.5 points in subjects with a baseline score of 0, each sustained for at least 6 months). Tertiary end points included gray matter atrophy on MRI.
For the time to first relapse analysis, Kaplan Meier curves and log-rank test were used to estimate and compare the relapse free probabilities of the two treatment groups. Cox proportional hazards model was used to compare the time to relapse free probabilities between two groups adjusting for covariates. The fixed effects include treatment groups (Estriol+GA vs Placebo+GA), baseline lesion number, age and baseline EDSS score. The random effect of subject is included in the model to account for within subject correlation.
Linear mixed effects model was carried out to compare the percent change in whole gray matter and cortical gray matter between treatment groups. For the exploratory endpoints of EDSS, PASAT, and brain volume measures, linear mixed effects model was used to compare treatment groups at 12 and 24 months. Linear mixed effects model was carried out to evaluate the association between PASAT change and percent brain volume change.

Assay [3] has the same test system. Kind of assay: 7/24 Spatial Recall Test, proportion with perfect score. Here is the method: The estriol and placebo subjects were administered the 7/24 Spatial Recall Test periodically throughout the study. A perfect score on the test is 7, and for both treatment groups, the median score was also 7. Therefore, performance was assessed by the proportion of subjects in each group who achieved a perfect score on the test. […] Logistic regression for repeated measurement was used to compare the probability having a perfect score between the two treatment groups, adjusting for age, education level, and baseline recall (Table 7).

The test system is the same in assay [4]. Kind of assay: Voxel-based morphometry (VBM) of gray matter loss. The settings on record: at 12 months; FDR P≤0.05; FIG. 9. Here is the method:
Voxel-based morphometry (VBM) analyses were performed as described by Kurth et al. (Neuroimage Clin. 4:454 (2014)). All subjects included in the VBM cohort were required to have at least reached month 12 of the study, and all images had to pass quality control before and after image preprocessing to be included in the VBM cohort. Using this criteria, the VBM cohort consisted of Ill subjects (62 in the estriol+GA, and 49 in the placebo+GA group) from 13 sites for month 12 analyses, and 86 of these subjects (45 in the estriol+GA, and 41 in the placebo+GA group) for 24 month analyses.
Brain images were preprocessed utilizing SPM8 and the VBM8 toolbox. White matter lesions were in-painted to minimize their impact based on manual delineations that were used for the analysis of new T2 lesions. […]
For the statistical analysis, a general linear model was applied that used the smoothed gray matter segments as the dependent and group x time as the independent variable. […] Applying this model, the interaction between group and time was calculated using T-tests to investigate group differences in local gray matter changes between month 0 and month 12 (month 0 and month 24, respectively). […]

As for glatiramer acetate [Placebo + GA], in assay [1], the “overall rate of GM atrophy” value was “over 1.0 % per year”. Moreover, the “Proportion of pts with progression at 24 months % (95% CI)” value in assay [2] was 15.8 (8.8-27.6) %; in assay [2] (listed as Placebo plus GA) it was 15.8%. Moreover, the “EDSS scores over 24 months, slope” value in assay [2] (FIG. 6) is −0.01. The “EDSS change at 24 months (median)” value in assay [2] is 0; in assay [2] (listed as Copaxone® plus placebo) it was “no change”; in assay [2] (listed as Placebo plus GA) it was “stable and unchanged”. Besides, the “Percentage of subjects achieving a perfect score on the 7/24 Spatial Recall Test” value in assay [3] (Month 3) is recorded as 60.8 (45/74) %; in assay [3] (Month 6), 73.2 (52/71) %; in assay [3] (Month 12) it was 71.4 (45/63) %; in assay [3] (Month 18), 63.6 (35/55) %; in assay [3] (Month 24), 75.0 (42/56) %. Besides, the “7/24 Spatial Recall Test, Estimated perfect score rate (95% CI)” value in assay [3] (logistic regression for repeated measurement, adjusted for age, education level, baseline recall) is given as 69.8 (63.4, 75.5) %. Further, the “voxel-wise gray matter loss as compared to baseline” value in assay [4] was “significant localized gray matter loss”. Moreover, in assay [4], the “voxel-wise gray matter loss, between group comparison” value is listed as “significantly more gray matter loss”.
